Tests used:
SREBP2 = assay: Precursor and mature forms of SREBP2 in HepG2 cells (Western blot); assay type: cell-based, human; details: 8 hours
Source text: Total cell lysates from untreated cells or cells treated with either berberine or GW707 were then harvested and analyzed by Western blot.

HMG-CoA reductase mRNA = HMG-CoA reductase mRNA stability in HepG2 cells; assay type: cell-based, human; details: HepG2, berberine 15 hours then actinomycin D
Experimental: HepG2 cells were cultured and then left alone or treated with berberine for 15 hours. After 15 hours, actinomycin D (5 μg/ml) was added to cells at 0, 20, 40, 60, 90, 120, or 150 minutes. Total mRNA was isolated and analyzed by Northern blot for the amount of LDLR mRNA. […] In contrast, the mRNA stability of HMG-CoA reductase was not altered by berberine.

LDLR mRNA 3'UTR = assay: Luc-LDLR 3'UTR chimeric transcripts in transfected HepG2 cells; assay type: cell-based, human; details: transfected HepG2, berberine eight hours
Source text: Three consecutive fragments of LDLR 3 ′UTR were inserted into a cytomegalovirus promoter driven Luc plasmid (pLuc) at the 3′ end of the Luc coding sequence before the SV40 polyadenylation signal. The wild-type Luc reporter plasmid pLuc was constructed by insertion of the Luc cDNA into the HindIII and Xba sites of pcDNA3.1/Zeo(+). Addition of the LDLR 3/UTR was accomplished by PCR amplifying different regions of the 2.5 kb 3′UTR of LDLR mRNA using XbaI-tailed primers and pLDLR3 as the template. The wild type pLuc and the chimeric plasmids pLuc-UTR-2, UTR-3 and UTR-4 were transfected into HepG2 cells (FIG. 11). Cells seeded in culture dishes were transiently transfected with the chimeric plasmids. Twenty-four hours after transfection, cells were trypsinized and reseeded equally into two dishes for each plasmid transfection. After overnight incubation, one dish was treated with dimethylsulfoxide as the solvent control and another was treated with berberine for eight hours. […]
To create ARE deletion constructs, an Apa site at nt 3,384 was generated for deleting ARE3, and an Apa1 site at nt 3,334 for deleting ARE2 by site-directed mutagenesis using pLuc/UTR-2 as the template. […] The effects of berberine on the chimeric Luc transcripts were determined by measuring Luc mRNA using a quantitative real-time RT-PCR assay. […]

clinical = details: human, in vivo, po, 300 mg
Experimental: Healthy human volunteers were given 300 mg of berberine orally. […] The blood concentration curve was analyzed by 3P87 Pharmacokinetics Software program (Chinese Pharmacological Association, China).

hyperglycemic rats = assay: Hyperglycemic HFHC diet/streptozotocin Wistar rats: blood glucose, serum insulin, ISI, serum lipids; assay type: in vivo, Wistar rat; details: for reduction of fasting blood glucose vs untreated rats on same HFHC diet: 14 days
Experimental: Nineteen Wistar rats (Male, 250g, the Institute of Experiment Animal Sciences, Chinese Academy of Medical Sciences, Beijing) were fed high fat and high cholesterol (HFHC) diet containing 25% lard, 20% sucrose and 5% yolk powder (Institute of Experiment Animal Sciences) for 4 weeks to induce insulin resistance status. Then, after fasting for 24 hours, 20 mg/kg of streptozotocin (Sigma) dissolved in 0.01 M citric acid buffer (pH 4.3) was injected via the tail vein. A week later, rats with blood glucose concentrations over 11.1 mmol/L were considered hyperglycemic and divided into two groups of 7 and one group of 5 as the control.
The rats in the two groups of 7 were treated with berberine orally twice a day for 14 days, at 8:00 am and 5:00 pm, with a total dose of berberine at 75 mg/kg/day or 150 mg/kg/day, respectively. Blood samples were taken by tail snip after 4 hours fasting on indicating days of treatment, and blood glucose was measured. On the last day of the experiment, all of the rats fasted overnight and were then sacrificed.
(§1) The livers were dissected and stored in liquid nitrogen for RNA extraction, real-time RT-PCR and PKC activity assay. Total blood samples were also collected to assay fasting blood glucose and serum insulin levels. The insulin levels were analyzed using radio-immunoassay (Linco Research, St Charles, Mo.). The insulin sensitivity indexes (ISI) were calculated according to the formula: 10^4/(fasting serum insulin X fasting blood glucose) (Hanson, Am. J. Epidemiol. 15 1(2), 190-198 (2000)). The insulin level and ISI of normal rats were also determined for comparison. […] It also elevated the fasting blood glucose from 7 to 12.8 mmol/L (P<0.001).

PKC = PKC activity in rat liver (PepTag assay); assay type: in vivo; details: berberine treated rats
Experimental: as §1
PKC activity was analyzed using the PepTag® Assay for Non-Radioactive Detection of Protein Kinase-C or cAMP-Dependent Protein Kinase kit (Promega) according to the protocol. Briefly, after homogenization and partial purification, […] was mixed with 5 μl of PepTag® Cl peptide (specific substrate of PKC), 5 μl of reaction buffer and 5 μl of PKC activator solution in a 25 μl reaction system. […] They were transferred to a 96-well plate and quantified using densitometry according to the supplier's protocol. The catalytic activity of total PKC of a specific sample was expressed as pmol/min/mg, representing the number of picomoles of phosphate transferred to the substrate per minute per milligram of proteins of the sample.

[1] = 150 mg/kg/day, 14 day treatment

Structure (SMILES): COc1ccc2cc3[n+](cc2c1OC)CCc1cc2c(cc1-3)OCO2 [berberine]
- amount of the mature form of SREB-2 (SREBP2): no effect
- mRNA stability of HMG-CoA reductase (HMG-CoA reductase mRNA): not altered
- expressions of LucUTR-3 and Luc-UTR-4 or the wild type (LDLR mRNA 3'UTR): without affecting
- increase of level of Luc-UTR-2 mRNA (LDLR mRNA 3'UTR): 2.5 fold
- AUC (clinical): 2800 ng·h/mL
- Cmax (clinical): 395 ng/mL
- clear rate CL (clinical): 130.5 L/h
- half-life (clinical): 2.91 h
- reduction of fasting blood glucose vs untreated rats on same HFHC diet (hyperglycemic rats; 75 mg/kg/day orally): 22%
- reduction of fasting blood glucose vs untreated rats on same HFHC diet (hyperglycemic rats; 150 mg/kg/day orally): 33%
- reduction of LDL-c vs control animals on same HFHC diet (hyperglycemic rats; [1]): 33%
- reduction of cholesterol vs control animals on same HFHC diet (hyperglycemic rats; [1]): 25%
- reduction of triglyceride vs control animals on same HFHC diet (hyperglycemic rats; [1]): 24%
- fasting serum insulin levels (hyperglycemic rats; insulin resistant HFHC rats): significantly reduced the serum insulin levels
- activity of PKC in the livers (PKC): increased activity of PKC

Source: US20080081781A1, “Methods and compositions for the treatment of metabolic syndrome” (priority 2004, published 2008)
